# Test results reported in article PMC12285946, “Investigation of the Cytotoxicity of Cu(II), Au(III), and Pd(II) Complexes with 2,4-Dithiouracil and 6-Propyl-2-thiouracil Derivatives” (BioTech, 2025).
# Experiments:
# HeLa cell lines = details: cited from earlier work
# [1] = system: HeLa cell line (human cervical carcinoma); test: MTT cell viability assay, HeLa tumor cell line; format: cell-based; details: for Cytotoxic Concentration (CD50): MTT, 72 h
# Experimental: (§1) To assess the in vitro biocompatibility of the tested compounds, a series of cell viability assays were conducted on human cervical carcinoma cell lines (HeLa), as well as on normal Vero cells (kidney cells from the African green monkey). All cell lines were obtained from the German Collection of Microorganisms and Cell Cultures (DSMZ GmbH, Braunschweig, Germany). The cell cultures were maintained in DMEM (Dulbecco’s Modified Eagle Medium) (Gibco Thermofisher Scientific, 168 Third Avenue, Waltham, MA, USA, 02451) growth medium, supplemented with 10% fetal bovine serum (FBS, Sigma-Aldrich, Darmstadt, Germany) and 5% L-glutamine (Sigma-Aldrich, Darmstadt, Germany) and incubated under controlled conditions of 37 °C in a humidified atmosphere with 5% CO2.
# (§2) The experimental approach included a series of cytotoxicity assays to determine the extent of cell proliferation inhibition by the synthesized complexes and their free ligands. Cell viability was quantified using a standard MTT-based colorimetric assay. Exponentially growing cells were harvested and seeded (100 μL per well) into 96-well plates at an appropriate density—3 × 10^5 for HeLa and Vero cells. The cells were exposed to various concentrations of the tested compounds, ranging from 0.0001 to 10 mg/mL, and incubated for 72 h.
# (§3) Statistical significance was established at p ≤ 0.05.
# [2] = system: Vero cell line (kidney cells from African green monkey); test: MTT cell viability assay, Vero normal cell line; format: cell-based; details: for Cytotoxic Concentration (CD50): Vero normal cell line, MTT, 72 h
# Experimental: as §1, §2, §3
smiles,measurement,setting,value
N.N.O=C([O-])C1(C(=O)[O-])CCC1.[Pt+2] [carboplatin],concentration yielding complete inhibition of cell viability,HeLa cell lines; HeLa,1 mg/mL
N.N.[Cl][Pt][Cl] [Cisplatin],reduction in cell viability,"HeLa cell lines; 0.15 mg/mL, 24 h, HeLa",about 10%
same,concentration leading to a significant loss of cell viability,"HeLa cell lines; HeLa, on average",0.003 mg/mL
same,concentration needed for complete inhibition of viability,HeLa cell lines; human cervical carcinoma cell line,higher than 1.5 mg/mL
CCCc1cc(=O)[nH]c(=S)[nH]1 [6-propyl-2-thiouracil],"cytotoxic activity relative to 2,4-dithiouracil",[1],three times
same,Cytotoxic Concentration (CD50),[1],0.0955 mM
same,Cytotoxic Concentration (CD50),[2],0.6068 mM
same,"cytotoxic activity relative to 2,4-dithiouracil",[2]; normal cell line (Vero),two times stronger
"Sc1ccnc(S)n1 [2,4-dithiouracil]",Cytotoxic Concentration (CD50),[1],0.3167 mM
same,Cytotoxic Concentration (CD50),[2],1.421 mM
